Measured values: US11780826B2 (Amgen Inc., priority 2017, dated 2023)

Tested on: Bovine cardiac myofibrils
Assay: In vitro model of dose-dependent myofibril ATPase modulation (AC1.4, pyruvate kinase/lactate dehydrogenase-coupled ATPase assay at pCa25)
Format: biochemical
Conditions: concentration at which ATPase activity was 1.4-fold higher than the bottom of the dose curve, mean of a minimum of two independent tests
Description: In vitro Model of Dose-Dependent Myofibril ATPase Modulation: Dose responses were measured using a calcium-buffered, pyruvate kinase and lactate dehydrogenase-coupled ATPase assay containing the following reagents (concentrations expressed are final assay concentrations): Potassium PIPES (12 mM), MgCl2 (2 mM), ATP (1 mM), DTT (1 mM), BSA (0.1 mg/mi), NADH (0.5 mM), PEP (1.5 mM), pyruvate kinase (4 U/ml), lactate dehydrogenase (8 U/ml), and antifoam (90 ppm). The pH was adjusted to 6.80 at 22° C. by addition of potassium hydroxide.
Bovine cardiac myofibrils were obtained by homogenizing the appropriate tissue in the presence of detergent. Such treatment removes membranes and majority of soluble cytoplasmic proteins but leaves intact cardiac sarcomeric acto-myosin apparatus. Concentrations of myofibrils were adjusted to achieve the necessary rate of ATP hydrolysis (typically 0.25-1.0 mg/ml).
Assays were performed by first preparing a dilution series of test chemical entity, each with an assay mixture containing potassium Pipes, MgCl2, BSA, DTT, pyruvate kinase, lactate dehydrogenase, myofibrils, antifoam, EGTA, CaCl2, and water. The assay was started by adding an equal volume of solution containing potassium Pipes, MgCl2, BSA, DTT, ATP, NADH, PEP, antifoam, and water. ATP hydrolysis was monitored by absorbance at 340 nm. The resulting dose response curve was fit by the 4 parameter equation y=Bottom+((Top−Bottom)/(1+((EC50/X)^Hill))). […] AC1.4 values reported in the table below are mean values based on a minimum of two independent tests.

Compound | AC1.4 [µM]
CCNc1ccc(C)cc1C(=O)N1C[C@@H](O)C[C@@H]1C(=O)N[C@@H](c1cc(F)c(Cl)cc1F)C1COC1 [Example 110, (4S)-N-((R)-(4-chloro-2,5-difluorophenyl)(3-oxetanyl)methyl)-1-(2-(ethylamino)-5-methylbenzoyl)-4-hydroxy-D-prolinamide] | 0.1732
C[C@@H](NC(=O)[C@H]1C[C@H](F)CN1C(=O)[C@H]1CCCN(S(=O)(=O)N2CC(C#N)C2)C1)c1cccc(C(F)(F)F)c1 [Example 494, (2R,4S)-1-((S)-1-((3-cyanoazetidin-1-yl)sulfonyl)piperidine-3-carbonyl)-4-fluoro-N-((R)-1-(3-(trifluoromethyl)phenyl)ethyl)pyrrolidine-2-carboxamide] | 2.274
CC[C@@H](NC(=O)[C@H]1CCCN1C(=O)[C@H]1CCCN(S(=O)(=O)N2CC(C#N)C2)C1)c1ccc(C(F)(F)F)cc1F [Example 4, 1-(((3S)-1-((3-cyano-1-azetidinyl)sulfonyl)-3-piperidinyl)carbonyl)-N-((1R)-1-(2-fluoro-4-(trifluoromethyl)phenyl)propyl)-D-prolinamide] | 0.01635
C[C@@H](NC(=O)[C@H]1CCCN1C(=O)c1cccc(S(=O)(=O)N2CC3(CC3)C2)c1)c1ccc(Cl)c(Cl)c1 [Example 635, 1-((3-(5-azaspiro[2.3]hex-5-ylsulfonyl)phenyl)carbonyl)-N-((1R)-1-(3,4-dichlorophenyl)ethyl)-D-prolinamide] | 4.1355
O=C(NCc1ccc(C(F)(F)F)cc1)[C@H]1CCCN1C(=O)[C@H]1CCCN(S(=O)(=O)N2CCC2c2cccc(F)c2)C1 (stereo partly drawn) [Example 166, 1-(((3S)-1-((-2-(3-fluorophenyl)-1-azetidinyl)sulfonyl)-3-piperidinyl)carbonyl)-N-(4-(trifluoromethyl)benzyl)-D-prolinamide] | 0.2807
C[C@@H](NC(=O)[C@H]1CCCN1C(=O)c1cccc(S(=O)(=O)N2CC(C#N)C2)c1)c1ccc(C(F)F)cc1F [Example 49, 1-((3-((3-cyano-1-azetidinyl)sulfonyl)phenyl)carbonyl)-N-((1R)-1-(4-(difluoromethyl)-2-fluorophenyl)ethyl)-D-prolinamide] | 0.05315
N#CC1CN(S(=O)(=O)N2CCC[C@H](C(=O)N3CCC[C@@H]3C(=O)NCc3ccccc3F)C2)C1 [Example 684, 1-(((3S)-1-((3-cyano-1-azetidinyl)sulfonyl)-3-piperidinyl)carbonyl)-N-(2-fluorobenzyl)-D-prolinamide] | 5.1985
N#CC1CN(S(=O)(=O)c2cccc(C(=O)N3CCC[C@@H]3C(=O)N[C@@H](c3ccc(C(F)(F)F)cc3)C3CC3)c2)C1 [Example 30, 1-(3-((3-cyano-1-azetidinyl)sulfonyl)benzoyl)-N-((R)-cyclopropyl(4-(trifluoromethyl)phenyl)methyl)-D-prolinamide] | 0.0318
C#CCN(C)S(=O)(=O)c1cccc(C(=O)N2CCC[C@@H]2C(=O)N[C@H](C)c2ccc(C(F)(F)F)cc2)c1 [Example 749, 1-(3-(methyl(2-propyn-1-yl)sulfamoyl)benzoyl)-N-((1R)-1-(4-(trifluoromethyl)phenyl)ethyl)-D-prolinamide] | 7.3175
N#CC1CN(S(=O)(=O)N2CCC(F)=C(C(=O)N3CCC[C@@H]3C(=O)NCc3ccc(C(F)(F)F)cc3)C2)C1 [Example 168, 1-((1-((3-cyano-1-azetidinyl)sulfonyl)-4-fluoro-l,2,5,6-tetrahydro-3-pyridinyl)carbonyl)-N-(4-(trifluoromethyl)benzyl)-D-prolinamide] | 0.2875
CN(C)S(=O)(=O)c1cccc(C(=O)N2CCCCC2C(=O)NCc2ccc(C(F)(F)F)cc2)c1 (centres unmarked) [Example 677, 1-(3-(N,N-dimethylsulfamoyl)benzoyl)-N-(4-(trifluoromethyl)benzyl)piperidine-2-carboxamide] | 4.987
CC(C)(C)c1cc(C(=O)N2[C@@H](C(=O)N[C@@H](c3ccc(C(F)(F)F)cc3F)C3COC3)C[C@H]3C[C@H]32)ccn1 [Example 647, (1R,3R,5R)-N-((R)-(2-fluoro-4-(trifluoromethyl)phenyl)(3-oxetanyl)methyl)-2-((2-(2-methyl-2-propanyl)-4-pyridinyl)carbonyl)-2-azabicyclo[3.1.0]hexane-3-carboxamide] | 4.4125
N#CC1CN(S(=O)(=O)N2CCO[C@H](C(=O)N3CCC[C@@H]3C(=O)NCc3cc(F)cc(F)c3)C2)C1 [Example 517, 1-(((2S)-4-((3-cyano-1-azetidinyl)sulfonyl)-2-morpholinyl)carbonyl)-N-(3,5-difluorobenzyl)-D-prolinamide] | 2.4485
CS(=O)(=O)c1ccc(N2CC(C#N)C2)c(C(=O)N2CCC[C@@H]2C(=O)N[C@@H](c2ccc(C(F)(F)F)cc2F)C2CC2)c1 [Example 550, (R)-1-(2-(3-cyanoazetidin-1-yl)-5-(methylsulfonyl)benzoyl)-N—((R)-cyclopropyl(2-fluoro-4-(trifluoromethyl)phenyl)methyl)pyrrolidine-2-carboxamide] | 2.8425
N#CC1(c2cccc(C(=O)N3[C@@H](C(=O)N[C@@H](c4ccc(C(F)(F)F)cc4F)C4COC4)C[C@H]4C[C@H]43)c2)CC1 [Example 456, (1R,3R,5R)-2-(3-(1-cyanocyclopropyl)benzoyl)-N-((R)-(2-fluoro-4-(trifluoromethyl)phenyl)(3-oxetanyl)methyl)-2-azabicyclo[3.1.0]hexane-3-carboxamide] | 1.882
O=C(NCc1ccc(C(F)(F)F)cc1)[C@H]1CCCN1C(=O)[C@H]1CCCN(S(=O)(=O)N2CC(C(F)F)C2)C1 [Example 274, 1-(((3S)-1-((3-(difluoromethyl)-1-azetidinyl)sulfonyl)-3-piperidinyl)carbonyl)-N-(4-(trifluoromethyl)benzyl)-D-prolinamide] | 0.6977
CS(=O)(=O)c1ccc(C(=O)N2C[C@@H](F)C[C@@H]2C(=O)N[C@@H](c2cc(F)c(Cl)cc2F)C2CC2)cn1 [Example 262, (4S)-N-((R)-(4-chloro-2,5-difluorophenyl)(cyclopropyl)methyl)-4-fluoro-1-((6-(methylsulfonyl)-3-pyridinyl)carbonyl)-D-prolinamide] | 0.6468
CS(=O)(=O)c1cccc(C(=O)N2C[C@@H](F)C[C@@H]2C(=O)N[C@@H](c2ccc(C(F)(F)F)c(F)c2)C2COC2)c1 [Example 273, (4S)-4-fluoro-N-((R)-(3-fluoro-4-(trifluoromethyl)phenyl)(3-oxetanyl)methyl)-1-(3-(methylsulfonyl)benzoyl)-D-prolinamide] | 0.6841
O=C(NCc1ccc(C(F)(F)F)cc1)[C@H]1CCCN1C(=O)[C@H]1CCCN(S(=O)(=O)N2CC(OC(F)(F)F)C2)C1 [Example 535, 1-(((3S)-1-((3-(trifluoromethoxy)-1-azetidinyl)sulfonyl)-3-piperidinyl)carbonyl)-N-(4-(trifluoromethyl)benzyl)-D-prolinamide] | 2.69
O=C(N[C@@H](c1cc(F)c(Cl)cc1F)C1COC1)[C@H]1C[C@H]2C[C@H]2N1C(=O)c1ccnc(C(F)(F)F)c1 [Example 171, (1R,3R,5R)-N-((R)-(4-chloro-2,5-difluorophenyl)(3-oxetanyl)methyl)-2-((2-(trifluoromethyl)-4-pyridinyl)carbonyl)-2-azabicyclo[3.1.0]hexane-3-carboxamide] | 0.2934
